Source: publication PMC13198257, “An aerosolized dual-action autotaxin inhibitor-PPARγ agonist for the treatment of pulmonary fibrosis” (Cell Reports Medicine, 2026)

System: lung gene expression
Assay: RNA sequencing of lung tissue (BLM/EL244 vs BLM)
Format: in vivo, mouse
Method: RNA quality was assessed using an Agilent TapeStation 4150 with the High Sensitivity […] ScreenTape (Agilent), according to the manufacturer’s protocols. For library preparation, the QuantSeq 3’mRNA-Seq Library Prep Kit (Lexogen) was used according to manufacturer’s instructions. Briefly, 500 ng of RNA from each sample was used for first-strand synthesis, followed by RNA template removal, and second-strand synthesis initiated by random primers. In-line barcodes were introduced at this step, and this was followed by magnetic bead-based purification. The resulting libraries were amplified for 15 cycles and re-purified, with quantity and quality assessed on a Qubit 4 Fluorometer with the Invitrogen Qubit dsDNA HS Assay and an Agilent Tapestation 4150 with the High Sensitivity D1000 assay kit, respectively. The quantified libraries were pooled equimolarly; 50ng of total library mix was used for Adapter Conversion PCR Amplification using the Universal Library Conversion Kit (App-A), Version: V1.0 (MGI Tech Co., Ltd.), according to the manufacturer’s instructions.
The quantity and quality of the purified adapter conversion PCR (AC-PCR) product were evaluated on a Qubit 4 Fluorometer with the Invitrogen Qubit dsDNA HS Assay and on an Agilent Tapestation 4150 with the High Sensitivity D1000 assay kit, respectively. This was followed by DNA denaturation, Single-Strand Circularisation, Enzymatic Digestion, Enzymatic Digestion Product Cleanup and Quality Control steps on 1 pmol of AC-PCR product, according to the Universal Library Conversion Kit (App-A) User Manual (Version: A3).
Finally, 60 fmol of ssCirDNA were used for DNB preparation and sequencing on a DNBSEQ-G400 platform at the BSRC Alexander Fleming Genomics Facility, using a G400 App-A FCS SE100 High-throughput Sequencing Set (MGI Tech Co., Ltd.), according to the manufacturer’s instructions.
Alignment of the FASTQ files was performed against the mouse genome build mm10 using a custom Bash script.[143] Read counting on the 3′ UTRs and differential expression analysis were conducted using the metaseqR2 bioconductor package.[144] Genes corresponding to the following biotypes were excluded: polymorphic_pseudogene, processed_transcript, pseudogene, IG_V_pseudogene, misc_RNA, IG_C_gene, IG_J_gene, IG_D_gene, IG_LV_gene, TR_V_gene, TR_V_pseudogene, TEC, and processed_pseudogene. Gene counts were normalized with DESEQ[145] through metaseqR2. Genes with more than 10 counts in at least 50% of the samples were kept for further processing. For differential expression analysis, the PANDORA algorithm[146] was used to estimate a meta p-value integrating the results from the DESEQ, DESEQ2,[147] edgeR,[148] limma,[149] NBPSeq,[150] and NOISeq[151] algorithms. All additional parameters were set to default values.
Pathway enrichment analysis was performed for the Gene Ontology Biological process (BP) and Molecular Function (MF) terms through GeneCodis 4.[152] The volcano plots, scatterplots, Venn diagrams, and dot plots were generated using the ggplot2 Bioconductor package.

**Q.** For `O=C1NC(=O)C(Cc2ccc(OCCC3CCN(C(=O)OCc4cc(Cl)cc(Cl)c4)CC3)cc2)S1` (stereo not drawn) [EL244, 3,5-dichlorobenzyl 4-(2-(4-((2,4-dioxothiazolidin-5-yl)methyl)phenoxy)ethyl)piperidine-1-carboxylate], which “Myh6 log2 nFC BLM/EL244 vs BLM” value (DEG Myh6, nFC: normalised fold change) is on record?
**A.** Its value is 2.62.

**Q.** And the “Myh7 log2 nFC BLM/EL244 vs BLM” value (DEG Myh7, nFC: normalised fold change)?
**A.** Its value is 2.22.

**Q.** What about the “Myl4 log2 nFC BLM/EL244 vs BLM” value (DEG Myl4, nFC: normalised fold change) of the same molecule?
**A.** The value was 1.94.

**Q.** And the “Myl7 log2 nFC BLM/EL244 vs BLM” value (DEG Myl7, nFC: normalised fold change)?
**A.** The value was 1.90.

**Q.** And the “Mylk3 log2 nFC BLM/EL244 vs BLM” value (DEG Mylk3, nFC: normalised fold change)?
**A.** Its value is 2.03.

**Q.** What about the “Myom2 log2 nFC BLM/EL244 vs BLM” value (DEG Myom2, nFC: normalised fold change) of the same molecule?
**A.** Its value is 1.87.

**Q.** What about the “log2 nFC BLM/EL244 vs BLM” value (DEG Ncapd2) of the same molecule?
**A.** Its value is -1.29.

**Q.** And the “Ndrg2 log2 nFC BLM/EL244 vs BLM” value (DEG Ndrg2, nFC: normalised fold change)?
**A.** Its value is 0.88.

**Q.** What about the “Nek5 log2 nFC BLM/EL244 vs BLM” value (DEG Nek5, nFC: normalised fold change) of the same molecule?
**A.** The value was 0.81.

**Q.** What about the “Ngp log2 nFC BLM/EL244 vs BLM” value (DEG Ngp, nFC: normalised fold change) of the same molecule?
**A.** Its value is 2.72.

**Q.** What about the “Nhlrc1 log2 nFC BLM/EL244 vs BLM” value (DEG Nhlrc1, nFC: normalised fold change) of the same molecule?
**A.** Its value is 1.34.

**Q.** What about the “log2 nFC BLM/EL244 vs BLM” value (DEG Nnat) of the same molecule?
**A.** The value was -1.34.

**Q.** And the “Nova2 log2 nFC BLM/EL244 vs BLM” value (DEG Nova2, nFC: normalised fold change)?
**A.** The value was 0.90.

**Q.** What about the “Npr3 log2 nFC BLM/EL244 vs BLM” value (DEG Npr3, nFC: normalised fold change) of the same molecule?
**A.** The value was 1.53.

**Q.** What about the “Nr1d1 log2 nFC BLM/EL244 vs BLM” value (DEG Nr1d1, nFC: normalised fold change) of the same molecule?
**A.** The value was 0.84.

**Q.** What about the “Nr4a3 log2 nFC BLM/EL244 vs BLM” value (DEG Nr4a3, nFC: normalised fold change) of the same molecule?
**A.** The value was 1.63.

**Q.** What about the “log2 nFC BLM/EL244 vs BLM” value (DEG Nrcam) of the same molecule?
**A.** Its value is -1.26.

**Q.** And the “log2 nFC BLM/EL244 vs BLM” value (DEG Nrep)?
**A.** Its value is -1.26.

**Q.** And the “Nrgn log2 nFC BLM/EL244 vs BLM” value (DEG Nrgn, nFC: normalised fold change)?
**A.** The value was 1.04.

**Q.** And the “Nrn1 log2 nFC BLM/EL244 vs BLM” value (DEG Nrn1, nFC: normalised fold change)?
**A.** Its value is 1.84.

**Q.** And the “Nrxn2 log2 nFC BLM/EL244 vs BLM” value (DEG Nrxn2, nFC: normalised fold change)?
**A.** Its value is 0.88.

**Q.** What about the “Ogn log2 nFC BLM/EL244 vs BLM” value (DEG Ogn, nFC: normalised fold change) of the same molecule?
**A.** The value was 0.86.

**Q.** And the “log2 nFC BLM/EL244 vs BLM” value (DEG Ooep)?
**A.** The value was -1.51.

**Q.** And the “Osgin1 log2 nFC BLM/EL244 vs BLM” value (DEG Osgin1, nFC: normalised fold change)?
**A.** Its value is 0.74.

**Q.** And the “Pcolce2 log2 nFC BLM/EL244 vs BLM” value (DEG Pcolce2, nFC: normalised fold change)?
**A.** Its value is 0.98.

**Q.** What about the “Pcp4l1 log2 nFC BLM/EL244 vs BLM” value (DEG Pcp4l1, nFC: normalised fold change) of the same molecule?
**A.** The value was 0.75.

**Q.** And the “log2 nFC BLM/EL244 vs BLM” value (DEG Pdgfc)?
**A.** The value was -1.47.

**Q.** What about the “log2 nFC BLM/EL244 vs BLM” value (DEG Pdlim4) of the same molecule?
**A.** Its value is -1.24.

**Q.** And the “Phactr1 log2 nFC BLM/EL244 vs BLM” value (DEG Phactr1, nFC: normalised fold change)?
**A.** The value was 0.74.

**Q.** And the “Phf1 log2 nFC BLM/EL244 vs BLM” value (DEG Phf1, nFC: normalised fold change)?
**A.** Its value is 0.75.

**Q.** What about the “Phf24 log2 nFC BLM/EL244 vs BLM” value (DEG Phf24, nFC: normalised fold change) of the same molecule?
**A.** The value was 1.57.

**Q.** And the “log2 nFC BLM/EL244 vs BLM” value (DEG Pla1a)?
**A.** Its value is -1.42.

**Q.** And the “Pla2g1b log2 nFC BLM/EL244 vs BLM” value (DEG Pla2g1b, nFC: normalised fold change)?
**A.** Its value is 0.79.

**Q.** And the “log2 nFC BLM/EL244 vs BLM” value (DEG Plk4)?
**A.** The value was -1.31.

**Q.** And the “Pln log2 nFC BLM/EL244 vs BLM” value (DEG Pln, nFC: normalised fold change)?
**A.** The value was 2.30.

**Q.** And the “Pmvk log2 nFC BLM/EL244 vs BLM” value (DEG Pmvk, nFC: normalised fold change)?
**A.** Its value is 1.09.

**Q.** And the “log2 nFC BLM/EL244 vs BLM” value (DEG Pole)?
**A.** Its value is -1.58.

**Q.** What about the “log2 nFC BLM/EL244 vs BLM” value (DEG Pole2) of the same molecule?
**A.** The value was -1.50.

**Q.** What about the “Ppbp log2 nFC BLM/EL244 vs BLM” value (DEG Ppbp, nFC: normalised fold change) of the same molecule?
**A.** The value was 1.09.

**Q.** What about the “Ppl log2 nFC BLM/EL244 vs BLM” value (DEG Ppl, nFC: normalised fold change) of the same molecule?
**A.** Its value is 0.87.

**Q.** What about the “Ppp4r4 log2 nFC BLM/EL244 vs BLM” value (DEG Ppp4r4, nFC: normalised fold change) of the same molecule?
**A.** The value was 1.26.

**Q.** What about the “Pram1 log2 nFC BLM/EL244 vs BLM” value (DEG Pram1, nFC: normalised fold change) of the same molecule?
**A.** The value was 1.64.

**Q.** What about the “Prf1 log2 nFC BLM/EL244 vs BLM” value (DEG Prf1, nFC: normalised fold change) of the same molecule?
**A.** Its value is 1.34.

**Q.** What about the “Prmt8 log2 nFC BLM/EL244 vs BLM” value (DEG Prmt8, nFC: normalised fold change) of the same molecule?
**A.** Its value is 1.27.

**Q.** What about the “Prob1 log2 nFC BLM/EL244 vs BLM” value (DEG Prob1, nFC: normalised fold change) of the same molecule?
**A.** Its value is 0.76.

**Q.** And the “log2 nFC BLM/EL244 vs BLM” value (DEG Psrc1)?
**A.** Its value is -1.26.

**Q.** What about the “Ptgfr log2 nFC BLM/EL244 vs BLM” value (DEG Ptgfr, nFC: normalised fold change) of the same molecule?
**A.** The value was 0.93.

**Q.** And the “log2 nFC BLM/EL244 vs BLM” value (DEG Pth1r)?
**A.** Its value is -1.40.

**Q.** What about the “Pwwp3b log2 nFC BLM/EL244 vs BLM” value (DEG Pwwp3b, nFC: normalised fold change) of the same molecule?
**A.** Its value is 1.22.

**Q.** And the “Rab44 log2 nFC BLM/EL244 vs BLM” value (DEG Rab44, nFC: normalised fold change)?
**A.** Its value is 1.61.

**Q.** And the “Rapgef5 log2 nFC BLM/EL244 vs BLM” value (DEG Rapgef5, nFC: normalised fold change)?
**A.** The value was 0.88.

**Q.** And the “Rassf10 log2 nFC BLM/EL244 vs BLM” value (DEG Rassf10, nFC: normalised fold change)?
**A.** The value was 1.19.

**Q.** And the “Rbfox3 log2 nFC BLM/EL244 vs BLM” value (DEG Rbfox3, nFC: normalised fold change)?
**A.** The value was 1.26.

**Q.** What about the “Rbm24 log2 nFC BLM/EL244 vs BLM” value (DEG Rbm24, nFC: normalised fold change) of the same molecule?
**A.** Its value is 1.20.

**Q.** What about the “Rdh12 log2 nFC BLM/EL244 vs BLM” value (DEG Rdh12, nFC: normalised fold change) of the same molecule?
**A.** The value was 1.74.

**Q.** What about the “Retnlg log2 nFC BLM/EL244 vs BLM” value (DEG Retnlg, nFC: normalised fold change) of the same molecule?
**A.** Its value is 1.46.

**Q.** And the “Rgs9 log2 nFC BLM/EL244 vs BLM” value (DEG Rgs9, nFC: normalised fold change)?
**A.** Its value is 1.01.
